The values that follow come from ChEMBL document CHEMBL3124937, “Design, synthesis and biological evaluation of 7-nitro-1H-indole-2-carboxylic acid derivatives as allosteric inhibitors of fructose-1,6-bisphosphatase” (Bioorg Med Chem, 2014).

Test [1] deals with T1, Fructose-1,6-bisphosphatase 1 (Homo sapiens, UniProt P09467).
T1 sequence (P09467 whole entry): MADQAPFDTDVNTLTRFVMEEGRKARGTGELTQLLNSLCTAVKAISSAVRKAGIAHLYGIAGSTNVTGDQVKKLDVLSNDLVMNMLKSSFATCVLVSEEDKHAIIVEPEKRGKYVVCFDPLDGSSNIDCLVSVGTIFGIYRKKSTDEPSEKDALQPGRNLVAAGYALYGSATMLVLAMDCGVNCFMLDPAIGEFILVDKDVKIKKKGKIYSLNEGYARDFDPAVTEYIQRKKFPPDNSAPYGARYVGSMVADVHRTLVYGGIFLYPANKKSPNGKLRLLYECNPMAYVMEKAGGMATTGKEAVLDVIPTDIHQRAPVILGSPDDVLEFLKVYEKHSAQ
In words: Inhibition of human recombinant FBPase expressed in Escherichia coli BL21(DE3) by phosphoglucose isomerase and glucose-6-phosphate dehydrogenase coupled assay.

Test [2] addresses T1, Fructose-1,6-bisphosphatase 1. Nature of the test: Inhibition of FBPase (unknown origin).

Where only a bound is given, the exact number is not on record here.

A word on the IC50: it is the concentration needed to halve the response being measured. For the molecule `CCc1c(C(=O)O)[nH]c2c([N+](=O)[O-])cc(CC(C)C)cc12`, the IC50 in test [1] is 0.99 µM.

For the molecule `COc1cccc(-c2ccc([N+](=O)[O-])c3[nH]c(C(=O)O)cc23)c1`, the IC50 in test [1] was greater than 50 µM.

Take `O=C(O)c1[nH]c2c([N+](=O)[O-])cccc2c1-c1cccc(F)c1`: in test [1], the IC50 came out at 4.5 µM.

For the molecule `O=C(O)c1[nH]c2c([N+](=O)[O-])cccc2c1-c1ccccc1`, the IC50 in test [1] was 12.7 µM.

As to `CC(=O)Nc1cccc(-c2c(C(=O)O)[nH]c3c([N+](=O)[O-])cccc23)c1`, the IC50 in test [1] is 7.4 µM.

As for `O=C(O)c1cc2c(Nc3ccc(C(F)(F)F)cc3)ccc([N+](=O)[O-])c2[nH]1`, the IC50 in test [1] was found to be 12.2 µM.

Turning to `COc1ccc(Nc2ccc([N+](=O)[O-])c3[nH]c(C(=O)O)cc23)cc1`, the half-maximal inhibitory concentration (IC50) in test [1] was greater than 50 µM.

For the molecule `O=C(O)c1cc2c(Nc3cccc(C(F)(F)F)c3)ccc([N+](=O)[O-])c2[nH]1`, the IC50 in test [1] is 29.1 µM.

For the molecule `COc1cccc(-c2c(C(=O)O)[nH]c3c([N+](=O)[O-])cccc23)c1`, in test [1], the IC50 was 35.6 µM.

On to `CC(C)Cc1ccc([N+](=O)[O-])c2[nH]c(C(=O)O)cc12`, for which, in test [1], the IC50 is 9.7 µM.

Consider `COc1cc(Nc2ccc([N+](=O)[O-])c3[nH]c(C(=O)O)cc23)cc(OC)c1OC`, for which, in test [1], the 50% inhibitory concentration (IC50) is greater than 50 µM.

With `Nc1ncnc2c1ncn2[C@@H]1O[C@H](COP(=O)(O)O)[C@@H](O)[C@H]1O` [ADENOSINE PHOSPHATE], in test [1], the IC50 was found to be 3.2 µM.

Take `CCc1c(C(=O)O)[nH]c2c([N+](=O)[O-])cccc12`: the IC50 in test [1] came out at 6.2 µM.

For `Cc1cccc(Nc2ccc([N+](=O)[O-])c3[nH]c(C(=O)O)cc23)c1`, the IC50 in test [1] turned out to be 4.3 µM.

`Nc1cccc(Nc2ccc([N+](=O)[O-])c3[nH]c(C(=O)O)cc23)c1`: the IC50 in test [1] was greater than 50 µM.

For the molecule `CC(C)Cc1cc([N+](=O)[O-])c2[nH]c(C(=O)O)cc2c1`, in test [1], the concentration for half-maximal inhibition (IC50) stood at 5.4 µM.

Turning to `COc1cccc(Nc2cc([N+](=O)[O-])c3[nH]c(C(=O)O)cc3c2)c1`, in test [1], the IC50 was 4.06 µM.

Take `O=C(O)c1cc2c(Nc3cccc([N+](=O)[O-])c3)ccc([N+](=O)[O-])c2[nH]1`: the IC50 in test [1] is greater than 50 µM.

With `O=C(O)c1cc2c(Nc3ccc(Cl)cc3)ccc([N+](=O)[O-])c2[nH]1`, the IC50 in test [1] is greater than 50 µM.

As for `CC(=O)Nc1cccc(-c2cc([N+](=O)[O-])c3[nH]c(C(=O)O)cc3c2)c1`, the IC50 in test [1] was 3.7 µM.

For the molecule `COc1cccc(Nc2ccc([N+](=O)[O-])c3[nH]c(C(=O)O)cc23)c1`, the IC50 in test [1] came out at 25.6 µM.

Regarding `O=C(O)c1cc2c(-c3ccccc3)ccc([N+](=O)[O-])c2[nH]1`, the IC50 in test [1] is greater than 50 µM.

With `O=C(O)c1cc2c(-c3ccc(C(F)(F)F)cc3)ccc([N+](=O)[O-])c2[nH]1`, the IC50 in test [1] was greater than 50 µM.

For the molecule `O=C(O)c1cc2c(Nc3cccc(Cl)c3)ccc([N+](=O)[O-])c2[nH]1`, the concentration for half-maximal inhibition (IC50) in test [1] is greater than 50 µM.

As for `O=C(O)c1cc2c(Nc3ccc([N+](=O)[O-])cc3)ccc([N+](=O)[O-])c2[nH]1`, in test [1], the IC50 was 3.4 µM.

In the case of `CC(=O)Nc1cccc(-c2ccc([N+](=O)[O-])c3[nH]c(C(=O)O)cc23)c1`, the IC50 in test [1] was 18.5 µM.

As for `CC(C)Cc1c(C(=O)O)[nH]c2c([N+](=O)[O-])cccc12`, the IC50 in test [1] stood at 10.3 µM.

`Cc1cccc(-c2ccc([N+](=O)[O-])c3[nH]c(C(=O)O)cc23)c1`: in test [1], the IC50 came to 25.9 µM.

In the case of `COc1cccc(N(C)c2ccc([N+](=O)[O-])c3[nH]c(C(=O)O)cc23)c1`, the IC50 in test [1] is greater than 50 µM.

As to `N#Cc1cccc(-c2ccc([N+](=O)[O-])c3[nH]c(C(=O)O)cc23)c1`, in test [1], the IC50 is greater than 50 µM.

For `COc1ccc(Nc2ccc([N+](=O)[O-])c3[nH]c(C(=O)O)cc23)cc1OC`, the IC50 in test [1] worked out at 7.7 µM.

For `O=C(O)c1cc2c(-c3cccc(C(F)(F)F)c3)ccc([N+](=O)[O-])c2[nH]1`, the IC50 in test [1] is greater than 50 µM.

Turning to `O=C(O)c1cc2c(Nc3ccccc3)ccc([N+](=O)[O-])c2[nH]1`, the half-inhibitory concentration (IC50) in test [1] is greater than 50 µM.

`O=C(O)c1cc2c(-c3cccc(Cl)c3)ccc([N+](=O)[O-])c2[nH]1`: the IC50 in test [1] was greater than 50 µM.

For the molecule `O=C(O)CCc1c(C(=O)O)[nH]c2cc(Cl)cc(Cl)c12`, the IC50 came out at 2.5 µM in test [2] and 2 µM in test [1].

Turning to `COc1ccccc1Nc1ccc([N+](=O)[O-])c2[nH]c(C(=O)O)cc12`, in test [1], the IC50 is greater than 50 µM.

Regarding `Cc1ccc(Nc2ccc([N+](=O)[O-])c3[nH]c(C(=O)O)cc23)cc1`, the IC50 in test [1] was 33.9 µM.

For the molecule `CC(=O)Nc1cccc(Nc2ccc([N+](=O)[O-])c3[nH]c(C(=O)O)cc23)c1`, in test [1], the concentration for half-maximal inhibition (IC50) is greater than 50 µM.

For `O=C(O)c1cc2c(-c3ccc(Cl)cc3)ccc([N+](=O)[O-])c2[nH]1`, the IC50 in test [1] was greater than 50 µM.

In the case of `Nc1cccc(-c2ccc([N+](=O)[O-])c3[nH]c(C(=O)O)cc23)c1`, in test [1], the IC50 was greater than 50 µM.

`N#Cc1ccc(-c2ccc([N+](=O)[O-])c3[nH]c(C(=O)O)cc23)cc1`: the IC50 in test [1] was greater than 50 µM.

For `CCCN(c1cccc(OC)c1)c1ccc([N+](=O)[O-])c2[nH]c(C(=O)O)cc12`, in test [1], the 50% inhibitory concentration (IC50) is greater than 50 µM.
